ChEMBL document CHEMBL6177983, “PSMA-Guided PROTAC Degraders for Tumor-Specific Protein Degradation in Prostate Cancer” (J Med Chem, 2025)
Calls of active or inactive are those of the source. The calls are words filed in the database; no cut-off is given here.

Experiments:
[1] = Toxicity in male BALB/c mouse assessed as body weight loss at 0.47 mmol/L, iv administered every day for 21 days; assay type: organism-based; conditions: in vivo, 504 h, time 21 day
[2] = target: T1, von Hippel-Lindau disease tumor suppressor/Bromodomain-containing protein 4 (Homo sapiens) (UniProt O60885+P40337); assay: PROTAC activity at BRD4/VHL in human LNCaP cells assessed as induction of BRD4 degradation at 10 nM incubated for 8 hrs in presence of MLN4924 by Western blotting analysis; assay type: cell-based
[3] = Toxicity in male BALB/c mouse assessed as effect on liver weight at 0.47 mmol/L, iv administered every day for 21 days; assay type: organism-based; conditions: in vivo, 504 h, time 21 day
[4] = target: T1, von Hippel-Lindau disease tumor suppressor/Bromodomain-containing protein 4 (Homo sapiens); assay: PROTAC activity at BRD4/VHL in human LNCaP cells assessed as induction of BRD4 degradation at 3 nM incubated for 24 hrs in presence of filipin by Western blotting analysis; assay type: cell-based
[5] = test system: DU-145; assay: Cytotoxicity against human DU-145 cells assessed as cell viability incubated for 72 hrs by CCK-8 assay; assay type: functional, cell-based
[6] = target: T1, von Hippel-Lindau disease tumor suppressor/Bromodomain-containing protein 4 (Homo sapiens); assay: PROTAC activity at BRD4/VHL in human DU-145 cells assessed as induction of BRD4 degradation up to 100 nM incubated for 24 hrs by Western blotting analysis; assay type: cell-based
[7] = Toxicity in male BALB/c mouse assessed as effect on heart weight at 0.47 mmol/L, iv administered every day for 21 days; assay type: organism-based; conditions: in vivo, 504 h, time 21 day
[8] = target: T1, von Hippel-Lindau disease tumor suppressor/Bromodomain-containing protein 4 (Homo sapiens); assay: PROTAC activity at BRD4/VHL in HEK293 cells assessed as induction of BRD4 degradation up to 100 nM incubated for 24 hrs by Western blotting analysis; assay type: cell-based
[9] = test system: J82; assay: Cytotoxicity against human J82 cells assessed as cell viability incubated for 72 hrs by CCK-8 assay; assay type: functional, cell-based
[10] = test system: LNCaP; assay: Antitumor activity against human LNCaP cells xenografted in BALB/c mouse assessed as tumor growth inhibition at 0.47 mmol/L, iv administered every day for 21 days; assay type: functional; conditions: 504 h, time 21 day, read-out: TGI
[11] = target: T1, von Hippel-Lindau disease tumor suppressor/Bromodomain-containing protein 4 (Homo sapiens); assay: PROTAC activity at BRD4/VHL in human 22Rv1 cells expressing PSMA assessed as induction of BRD4 degradation incubated for 24 hrs by Western blotting analysis; assay type: cell-based; conditions: dose <= 100.0 nM
[12] = Toxicity in male BALB/c mouse assessed as effect on kidney weight at 0.47 mmol/L, iv administered every day for 21 days; assay type: organism-based; conditions: in vivo, 504 h, time 21 day
[13] = test system: HEK-293T; assay: Cytotoxicity against HEK293T cells assessed as cell viability incubated for 72 hrs by CCK-8 assay; assay type: toxicity, cell-based; conditions: human
[14] = target: T1, von Hippel-Lindau disease tumor suppressor/Bromodomain-containing protein 4 (Homo sapiens); assay: PROTAC activity at BRD4/VHL in human LNCaP cells assessed as induction of BRD4 degradation at 10 nM incubated for 8 hrs in presence of MG132 by Western blotting analysis; assay type: cell-based
[15] = Toxicity in male BALB/c mouse assessed as effect on tumor weight at 0.47 mmol/L, iv administered every day for 21 days; assay type: organism-based; conditions: in vivo, 504 h, time 21 day
[16] = Toxicity in male BALB/c mouse assessed as effect on spleen weight at 0.47 mmol/L, iv administered every day for 21 days; assay type: organism-based; conditions: in vivo, 504 h, time 21 day
[17] = target: T1, von Hippel-Lindau disease tumor suppressor/Bromodomain-containing protein 4 (Homo sapiens); assay: PROTAC activity at BRD4/VHL in human J82 cells assessed as induction of BRD4 degradation up to 100 nM incubated for 24 hrs by Western blotting analysis; assay type: cell-based
[18] = Drug concentration in male BALB/c mouse Tumor at 0.14 mmol/L, iv; assay type: ADME, tissue-based, Neoplasm; conditions: in vivo
[19] = Drug concentration in male BALB/c mouse plasma at 0.14 mmol/L, iv; assay type: ADME, cell-free
[20] = target: T1, von Hippel-Lindau disease tumor suppressor/Bromodomain-containing protein 4 (Homo sapiens); assay: PROTAC activity at BRD4/VHL in human LNCaP cells assessed as induction of BRD4 degradation at 10 nM incubated for 8 hrs in presence of VH032 by Western blotting analysis; assay type: cell-based
[21] = Half life in BALB/c mouse at 0.14 mmol/L, iv; assay type: ADME; conditions: in vivo
[22] = target: T1, von Hippel-Lindau disease tumor suppressor/Bromodomain-containing protein 4 (Homo sapiens); assay: PROTAC activity at BRD4/VHL PSMA knockdown in human LNCaP cells assessed as induction of BRD4 degradation at 3 nM incubated for 12 hrs by Western blotting analysis; assay type: cell-based
[23] = Toxicity in male BALB/c mouse assessed as effect on lung weight at 0.47 mmol/L, iv administered every day for 21 days; assay type: organism-based; conditions: in vivo, 504 h, time 21 day
[24] = target: T1, von Hippel-Lindau disease tumor suppressor/Bromodomain-containing protein 4 (Homo sapiens); assay: PROTAC activity at BRD4/VHL in human VCaP cells expressing PSMA assessed as induction of BRD4 degradation incubated for 24 hrs by Western blotting analysis; assay type: cell-based; conditions: dose <= 100.0 nM
[25] = target: T1, von Hippel-Lindau disease tumor suppressor/Bromodomain-containing protein 4 (Homo sapiens); assay: PROTAC activity at BRD4/VHL in human LNCaP cells expressing PSMA assessed as induction of BRD4 degradation incubated for 24 hrs by Western blotting analysis; assay type: cell-based; conditions: dose <= 100.0 nM

T1 sequence (P40337 whole entry, looked up, other chains not shown): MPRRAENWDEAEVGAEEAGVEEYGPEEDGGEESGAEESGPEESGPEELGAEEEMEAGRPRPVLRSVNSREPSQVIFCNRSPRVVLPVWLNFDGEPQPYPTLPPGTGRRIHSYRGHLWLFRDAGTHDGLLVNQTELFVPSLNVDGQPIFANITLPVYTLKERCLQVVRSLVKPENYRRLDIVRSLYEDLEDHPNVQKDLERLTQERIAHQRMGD

Cc1ncsc1-c1ccc([C@H](C)NC(=O)[C@@H]2C[C@@H](OC(=O)CCCc3cn(CCCNC(=O)[C@H](Cc4ccc(O)cc4)NC(=O)[C@H](Cc4ccccc4)NC(=O)CCC(=O)NCCCCCC(=O)N(CCCC[C@H](NC(=O)N[C@@H](CCC(=O)O)C(=O)O)C(=O)O)Cc4cccc(Cl)c4)nn3)CN2C(=O)[C@@H](NC(=O)COCCCOCCNC(=O)C[C@@H]2N=C(c3ccc(Cl)cc3)c3c(sc(C)c3C)-n3c(C)nnc32)C(C)(C)C)cc1
Activity [1]: Non-toxic | Activity [2]: Active | Activity [3]: Non-toxic | Activity [4]: Active | Activity [5]: inactive | Activity [6]: inactive | Activity [7]: Non-toxic | Activity [8]: inactive | Activity [9]: inactive | inhibition in vivo at 470 µM [10]: 88.6% | Activity [11]: Dose-dependent-effect | Activity [12]: Non-toxic | Activity [13]: Non-toxic | Activity [14]: Active | Activity [15]: Non-toxic | Activity [16]: Non-toxic | Activity [17]: inactive | Drug uptake [18]: Active | Cp [19]: Active | Activity [20]: Active | half-life [21]: 4.19 h | Activity [22]: Active | Activity [23]: Non-toxic | Activity [24]: Dose-dependent-effect | Activity [25]: Dose-dependent-effect
